Measurements taken from ChEMBL document CHEMBL5729683, “Diazaindole derivative and use thereof as CHK1 inhibitor” (2023).
pIC50: −log10 of the molar value.

Columns and labels:
[1] = target: Serine/threonine-protein kinase Chk2 (Homo sapiens, UniProt O96017); assay: Activity Test of Compounds in the CHK1 Coupled Reaction System: The compounds of the present disclosure used in the experiments were self-prepared, and their chemical names and structural formulas were shown in the preparation embodiments of each compound. […] The test was carried out on the KinaseProfiler™ protein kinase activity detection platform of Eurofins, and the experimental results were provided by the company. […] A mixture solution of Mg2′ and ATP (adenosine triphosphate) was added to initiate the reaction and the reaction solution was incubated at room temperature for 40 min. 0.5% […] was added to terminate the reaction. […] The value was read with scintillation counting method after drying.
Sequence of Serine/threonine-protein kinase Chk2 (O96017 whole entry): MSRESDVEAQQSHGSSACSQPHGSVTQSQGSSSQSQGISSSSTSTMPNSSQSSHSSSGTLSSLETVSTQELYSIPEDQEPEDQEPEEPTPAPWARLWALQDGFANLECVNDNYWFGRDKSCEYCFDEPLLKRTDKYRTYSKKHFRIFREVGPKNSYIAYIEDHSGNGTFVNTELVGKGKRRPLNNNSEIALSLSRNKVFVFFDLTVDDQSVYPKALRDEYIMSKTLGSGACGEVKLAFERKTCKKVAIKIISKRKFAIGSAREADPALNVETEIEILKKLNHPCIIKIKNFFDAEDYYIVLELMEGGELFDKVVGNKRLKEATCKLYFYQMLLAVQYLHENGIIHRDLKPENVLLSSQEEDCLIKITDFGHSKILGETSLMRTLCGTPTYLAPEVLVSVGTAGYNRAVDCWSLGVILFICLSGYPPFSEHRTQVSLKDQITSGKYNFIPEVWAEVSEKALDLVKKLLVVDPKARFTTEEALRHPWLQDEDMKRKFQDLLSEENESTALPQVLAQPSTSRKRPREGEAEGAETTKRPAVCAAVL

[2] = target: T1, Serine/threonine-protein kinase Chk1 (Homo sapiens, UniProt O14757); assay: Activity Test of Compounds in the CHK1 Coupled Reaction System: The compounds of the present disclosure used in the experiments were self-prepared, and their chemical names and structural formulas were shown in the preparation embodiments of each compound. The determination mixture containing embodiment compounds of the present disclosure and Chk1 and Chk2 kinases were incubated in a microtiter plate, and CHK1 inhibitor activity of compounds were tested by monitoring the phosphorylation of Chk1 and Chk2 kinases on a synthetic peptide substrate with a specific amino acid sequence ([…], SEQ ID NO: 1). The test was carried out on the KinaseProfiler™ protein kinase activity detection platform of Eurofins, and the experimental results were provided by the company. The procedure was as follows: Chk1 and Chk2 kinases were diluted with 20 mM MOPS (morpholinpropane sulfonic acid), 1 mM EDTA (ethylenediaminetetraacetic acid), 0.04% Brij-35, 5% glycerol, 0.1% 2-mercaptoethanol, 1 mg/mL BSA (bovine serum albumin) and added to the reaction system, and the reaction system contained the embodiment compounds, 8 mM MOPS pH 7.0, 0.2 mM EDTA, 200 sM polypeptide substrate ([…], SEQ ID NO: 1), 10 mM magnesium acetate and a certain concentration of [γ-33P]-ATP (the strength was about 500 cpm/pmol). A mixture solution of Mg2′ and ATP (adenosine triphosphate) was added to initiate the reaction and the reaction solution was incubated at room temperature for 40 min. 0.5% Phosphate buffer was added to terminate the reaction. 10 μL of the reaction solution was filtered four times on a continuous filter P30, washed three times with 0.425 phosphate buffer, and once with methanol, each wash for 4 min. The value was read with scintillation counting method after drying.
T1 sequence (O14757 whole entry): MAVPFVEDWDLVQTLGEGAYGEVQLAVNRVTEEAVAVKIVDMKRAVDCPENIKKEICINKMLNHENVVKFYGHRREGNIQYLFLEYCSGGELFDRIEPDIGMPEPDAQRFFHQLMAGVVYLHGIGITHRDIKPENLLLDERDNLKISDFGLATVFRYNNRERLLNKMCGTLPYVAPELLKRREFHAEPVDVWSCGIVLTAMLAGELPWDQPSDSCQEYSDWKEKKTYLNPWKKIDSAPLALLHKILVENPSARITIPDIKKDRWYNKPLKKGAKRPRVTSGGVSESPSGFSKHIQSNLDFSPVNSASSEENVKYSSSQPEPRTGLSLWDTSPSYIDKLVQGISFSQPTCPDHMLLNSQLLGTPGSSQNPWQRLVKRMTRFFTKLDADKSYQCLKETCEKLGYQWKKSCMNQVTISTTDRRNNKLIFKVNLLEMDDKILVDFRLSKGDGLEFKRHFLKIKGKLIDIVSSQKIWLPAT

## COc1nc(C)ccc1-c1cc(Nc2cnc3c(F)cn(C4CCN(C)CC4)c3n2)n[nH]1
[1]
  pIC50: 6.78

## COc1cccc(F)c1-c1cc(Nc2cnc3ccn(C4CCNCC4)c3n2)n[nH]1
[1]
  pIC50: 7.89
[2]
  IC50: in the range around 1 nM

## COc1nc(C)ccc1-c1cc(Nc2cnc3ccn(CC4CCNCC4)c3n2)n[nH]1
[1]
  pIC50: 5.71
[2]
  pIC50: 8.30

## COc1cccc(F)c1-c1cc(Nc2cnc3c(F)cn(C4CCNCC4)c3n2)n[nH]1
[1]
  pIC50: 8.70
[2]
  pIC50: > 9.00

## COc1nc(C)ccc1-c1cc(Nc2cnc3ccn(C4CCN(C)CC4)c3n2)n[nH]1
[1]
  pIC50: 6.59

## COc1nc(C)ccc1-c1cc(Nc2cnc3c(F)cn(C4CCNCC4)c3n2)n[nH]1
[1]
  pIC50: 7.55

## COc1nc(C)ccc1-c1cc(Nc2cnc3ccn(C4CCNCC4)c3n2)n[nH]1
[1]
  pIC50: 7.10

## COc1cccc(F)c1-c1[nH]nc(Nc2cnc3ccn(C4CCNCC4)c3n2)c1F
[1]
  pIC50: 7.62
[2]
  IC50: in the range around 2 nM
